Structures are written as SMILES.

The term IC50 denotes the concentration at which inhibition is half-maximal. Lower therefore signals higher potency.

For assay [1], the system named is Plasmodium falciparum. Briefly: Antimalarial activity against Plasmodium falciparum 3D7. Format: functional, organism-based.
For assay [2], the system named is Plasmodium falciparum. Briefly: Antimalarial activity against Plasmodium falciparum K1. Type of assay: functional, organism-based.

`CC(C)(C)NCc1cc(Nc2ccnc3cc(Cl)ccc23)cc(-c2ccc(Cl)cc2)c1F` [FLOUROTEBUQUINE]: the figures for the IC50 in the assay on Plasmodium falciparum [1] and with Plasmodium falciparum [2] were 58 nM and 74 nM, respectively.
Take `CC(C)(C)NCc1cc(Nc2ccnc3cc(Cl)ccc23)cc(-c2ccc(Cl)cc2)c1O` [TEBUQUINE]: the concentration for half-maximal inhibition (IC50) in the assay on Plasmodium falciparum [1] was found to be 18 nM; in the assay on Plasmodium falciparum [2] it was 21 nM.
